The source of these data is PubChem BioAssay AID330 (DTP/NCI, 2004).

For the assay, the system named is P388 leukemia ip, CD2F1 mice, survival T/C. Briefly: NCI In Vivo Anticancer Drug Screen. Data for tumor model P388 Leukemia (intraperitoneal) in CD2F1 (CDF1) mice. The note with it: endpoint: median survival time, higher = longer survival. An outline of the steps: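 Mice carrying the transplanted tumor received test compound or vehicle. Survival was recorded in each group, and the value is the treated-group measurement divided by that of the vehicle-treated control group.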

Where [1] appears, read: dose: 50.0 mg/kg/injection, schedule: Q01DX005 (ip), vehicle: saline with Tween-80.
Where [2] appears, read: dose: 100.0 mg/kg/injection, schedule: Q01DX005 (ip), vehicle: saline with Tween-80.
Setting [3] is: dose: 200.0 mg/kg/injection, schedule: Q01DX005 (ip), vehicle: saline with Tween-80.
Setting [4] is: dose: 12.5 mg/kg/injection, schedule: Q01DX005 (ip), vehicle: saline with Tween-80.
Where [5] appears, read: dose: 25.0 mg/kg/injection, schedule: Q01DX005 (ip), vehicle: saline with Tween-80.
Where [6] appears, read: dose: 50.0 mg/kg/injection, schedule: Q04DX003 (ip), vehicle: saline with Tween-80.
The mark [7] stands for this setting: dose: 100.0 mg/kg/injection, schedule: Q04DX003 (ip), vehicle: saline with Tween-80.
The mark [8] stands for this setting: dose: 60.0 mg/kg/injection, schedule: Q01DX005 (ip), vehicle: saline with Tween-80.
The mark [9] stands for this setting: dose: 120.0 mg/kg/injection, schedule: Q01DX005 (ip), vehicle: saline with Tween-80.
[10] abbreviates: dose: 240.0 mg/kg/injection, schedule: Q01DX005 (ip), vehicle: saline with Tween-80.
Setting [11] is: dose: 200.0 mg/kg/injection, schedule: Q04DX003 (ip), vehicle: saline with Tween-80.
The mark [12] stands for this setting: dose: 50.0 mg/kg/injection, schedule: Q01DX009 (ip), vehicle: saline with Tween-80.
Setting [13] is: dose: 100.0 mg/kg/injection, schedule: Q01DX009 (ip), vehicle: saline.
Setting [14] is: dose: 50.0 mg/kg/injection, schedule: Q01DX005 (ip), vehicle: Klucel (hydroxypropylcellulose) (HPC).
The mark [15] stands for this setting: dose: 100.0 mg/kg/injection, schedule: Q01DX005 (ip), vehicle: Klucel (hydroxypropylcellulose) (HPC).
Where [16] appears, read: dose: 200.0 mg/kg/injection, schedule: Q01DX005 (ip), vehicle: Klucel (hydroxypropylcellulose) (HPC).

Several values for one entry are separate records, joined by “and”; a condition that tells them apart may be missing. Identical values can stand only once. Toxic doses and inconclusive results are not listed.

Take `C=C1CC2(CC(C(=C)C)CCC2C)OC1=O` (configuration not stated): the T/C (dose: 100.0 mg/kg/injection, schedule: Q01DX001 (ip), vehicle: saline) is 101 % of control; the T/C (dose: 200.0 mg/kg/injection, schedule: Q01DX001 (ip), vehicle: saline) is 99 % of control; the T/C (dose: 400.0 mg/kg/injection, schedule: Q01DX001 (ip), vehicle: saline) was 102 % of control.
Consider `CCOC(=O)Cc1csc(=S)n1-c1ccccc1`, for which the T/C was 102 % of control under setting [1], 102 % of control under setting [2] and 90 % of control under setting [3].
Turning to `O=C1CC(Cl)(CS(F)(F)(F)(F)F)O1` (configuration not stated), the T/C reads like this: (dose: 12.5 mg/kg/injection, schedule: Q01DX005 (ip), vehicle: saline + alcohol) 100 % of control; under setting [4], 104 % of control; (dose: 25.0 mg/kg/injection, schedule: Q01DX005 (ip), vehicle: saline + alcohol) 103 % of control; under setting [5], 109 % of control; (dose: 50.0 mg/kg/injection, schedule: Q01DX005 (ip), vehicle: saline + alcohol) 99 % of control; under setting [1], 110 % of control and 114 % of control.
Take `CCOC(=O)c1cnc2cc3c(cc2c1Nc1cccc(C(F)(F)F)c1)OCO3`: the T/C was 96 % of control (dose: 60.0 mg/kg/injection, schedule: Q01DX005 (ip), vehicle: Klucel (hydroxypropylcellulose) (HPC)); 102 % of control (dose: 120.0 mg/kg/injection, schedule: Q01DX005 (ip), vehicle: Klucel (hydroxypropylcellulose) (HPC)); 101 % of control (dose: 240.0 mg/kg/injection, schedule: Q01DX005 (ip), vehicle: Klucel (hydroxypropylcellulose) (HPC)).
Turning to `CN=P1(NC)NP(=NC)(NC)NP(=NC)(NC)NP(=NC)(NC)N1.[Cl-].[Cl-].[Cl-].[Cl-].[Pt+2]` (configuration not stated), the T/C (dose: 12.5 mg/kg/injection, schedule: Q04DX003 (ip), vehicle: saline with Tween-80) is 102 % of control; the T/C (dose: 25.0 mg/kg/injection, schedule: Q04DX003 (ip), vehicle: saline with Tween-80) was 111 % of control; the T/C under setting [6] was 120 % of control; the T/C under setting [7] was 109 % of control.
Turning to `O=[N+]([O-])c1ccc(/C=C/C(CCN2CCCCC2)=N\O)o1`, the T/C under setting [8] was 104 % of control, the T/C under setting [9] is 104 % of control and the T/C under setting [10] was 100 % of control.
On to `Clc1c2c(c(Cl)c3c1=Nc1ccc4ccccc4c1S3)=Nc1ccc3ccccc3c1S2`, for which the T/C under setting [7] is 107 % of control; the T/C under setting [11] was 113 % of control; the T/C (dose: 400.0 mg/kg/injection, schedule: Q04DX003 (ip), vehicle: saline with Tween-80) was 115 % of control.
For `Cc1cc(C)c(C2C(=O)c3ccccc3C2=O)c(C)c1`, the T/C was 111 % of control (dose: 25.0 mg/kg/injection, schedule: Q01DX009 (ip), vehicle: saline with Tween-80); 109 % of control under setting [12]; 116 % of control (dose: 100.0 mg/kg/injection, schedule: Q01DX009 (ip), vehicle: saline with Tween-80); 110 % of control (dose: 200.0 mg/kg/injection, schedule: Q01DX009 (ip), vehicle: saline with Tween-80).
On to `Cc1nnc(-n2nc(-c3ccc(Cl)cc3)cc2N)[nH]c1=O`, for which the T/C reads like this: under setting [1], 98 % of control; under setting [2], 106 % of control; under setting [3], 93 % of control.
On to `COc1ccc(NC(=O)C(Cl)Cl)ccc1=O`, for which the T/C under setting [12] is 91 % of control.
Consider `Sc1cc2c(c3ccccc13)Nc1ccccc1S2`, for which the T/C runs as follows: (dose: 50.0 mg/kg/injection, schedule: Q01DX009 (ip), vehicle: Klucel (hydroxypropylcellulose) (HPC)) 92 % of control; (dose: 100.0 mg/kg/injection, schedule: Q01DX009 (ip), vehicle: Klucel (hydroxypropylcellulose) (HPC)) 97 % of control; (dose: 200.0 mg/kg/injection, schedule: Q01DX009 (ip), vehicle: Klucel (hydroxypropylcellulose) (HPC)) 97 % of control.
As to `[CH3][Sn]1([CH3])[O]c2ccccc2C=NCCN=Cc2ccccc2[O]1`, the T/C is, setting by setting: (dose: 12.5 mg/kg/injection, schedule: Q01DX009 (ip), vehicle: saline) 100 % of control and 91 % of control; (dose: 25.0 mg/kg/injection, schedule: Q01DX009 (ip), vehicle: saline) 106 % of control and 86 % of control; (dose: 50.0 mg/kg/injection, schedule: Q01DX009 (ip), vehicle: saline) 91 % of control; under setting [13], 107 % of control.
Regarding `O=C1c2ccccc2C2CNC1(O)c1ccccc12` (configuration not stated), the T/C reads like this: under setting [1], 97 % of control; under setting [2], 97 % of control; under setting [3], 102 % of control.
Take `CC1CC(C)C(C)C(C)(CN(C)C)C1` (configuration not stated): the T/C is 102 % of control under setting [4]; 98 % of control under setting [5]; 100 % of control and 96 % of control under setting [1].
Take `CC(C)n1cccc(C#N)c1=S`: the T/C was 101 % of control under setting [14], 98 % of control under setting [15] and 97 % of control under setting [16].
For the molecule `O=C(O)C1CCN1` (configuration not stated), the T/C is 93 % of control under setting [13]; 86 % of control (dose: 200.0 mg/kg/injection, schedule: Q01DX009 (ip), vehicle: saline); 86 % of control (dose: 300.0 mg/kg/injection, schedule: Q01DX009 (ip), vehicle: saline).
For `O=c1cc2n(c(=O)n1-c1ccccc1)CCCC2`, the T/C runs as follows: under setting [8], 102 % of control; under setting [9], 100 % of control; under setting [10], 103 % of control.
Turning to `CC(O)COc1ccccc1P(c1ccccc1)c1ccccc1` (configuration not stated), the T/C was 104 % of control and 95 % of control (dose: 25.0 mg/kg/injection, schedule: Q01DX005 (ip), vehicle: Klucel (hydroxypropylcellulose) (HPC)); 104 % of control and 109 % of control and 97 % of control under setting [14]; 101 % of control and 109 % of control and 91 % of control under setting [15]; 104 % of control and 92 % of control under setting [16].
As to `Cc1[nH]nc(C(N)=O)c1N=NN(C)C`, the T/C (dose: 12.5 mg/kg/injection, schedule: Q01DX009 (ip), vehicle: saline with Tween-80) is 113 % of control; the T/C under setting [12] was 204 % of control and 209 % of control; the T/C under setting [6] was 122 % of control; the T/C under setting [7] is 150 % of control; the T/C (dose: 132.0 mg/kg/injection, schedule: Q04DX003 (ip), vehicle: saline with Tween-80) is 159 % of control; the T/C under setting [11] was 154 % of control.
Regarding `O=C(CCCl)Nc1ccc(CCC(=O)c2ccccc2NC(=O)CCCl)cc1`, the T/C is 100 % of control under setting [8], 90 % of control under setting [9] and 92 % of control under setting [10].
For the molecule `O=C(O)c1cn(C2CCCCC2)c(=O)[nH]c1=O`, the T/C reads like this: under setting [1], 99 % of control; under setting [2], 92 % of control; under setting [3], 92 % of control.
Turning to `O=C1c2nc[nH]c2C(=O)c2c1nc[nH]c2=O`, the T/C by setting is: (dose: 3.75 mg/kg/injection, schedule: Q01DX005 (ip), vehicle: other) 101 % of control; (dose: 7.5 mg/kg/injection, schedule: Q01DX005 (ip), vehicle: other) 100 % of control; (dose: 15.0 mg/kg/injection, schedule: Q01DX005 (ip), vehicle: other) 106 % of control; (dose: 30.0 mg/kg/injection, schedule: Q01DX005 (ip), vehicle: other) 102 % of control.
For `CC1=CN2C(c3ccccc3)=NON(c3ccc(C)cn3)C2C=C1` (configuration not stated), under setting [3], the T/C was 92 % of control.
Consider `C[n+]1cccc2ccccc21`, for which the T/C (dose: 100.0 mg/kg/injection, schedule: Q04DX003 (ip), vehicle: saline) is 109 % of control.
